{"source": "patent US20070275954A1", "about": "(published 2007)", "data": [{"units": {"melting point": "°C"}, "values": [{"smiles": "CNC1=Nc2ncccc2C(c2ccsc2)=NC1c1cccs1", "note": "(stereo not shown)", "melting point": "85 to 88"}, {"smiles": "CNC1=Nc2ncccc2C(c2cn[nH]c2)=NC1c1cccs1", "note": "(stereo not shown)", "melting point": "187 to 194"}, {"smiles": "Cn1ccnc1C1=NC(c2cccs2)C(N2CCC2)=Nc2ncccc21", "note": "(stereo not shown)", "melting point": "215 to 217"}, {"smiles": "CNC1=Nc2ncccc2C(c2ccoc2)=NC1c1cccs1", "note": "(stereo not shown)", "melting point": "110 to 114"}, {"smiles": "c1csc(C2N=C(c3cc[nH]c3)c3cccnc3N=C2N2CCC2)c1", "note": "(stereo not shown)", "melting point": "168 to 172"}, {"smiles": "c1csc(C2N=C(c3ccsc3)c3cccnc3N=C2N2CCC2)c1", "note": "(stereo not shown)", "melting point": "90 to 95"}, {"smiles": "CNC1=Nc2ncccc2C(c2ccc[nH]2)=NC1c1cccs1", "note": "(stereo not shown)", "melting point": "165 to 170"}, {"smiles": "c1csc(C2N=C(c3ccsc3)c3cccnc3N=C2NC2CC2)c1", "note": "(stereo not shown)", "melting point": "90 to 96"}, {"smiles": "CNC1=Nc2ncccc2C(c2cc[nH]n2)=NC1c1cccs1", "note": "(stereo not shown)", "melting point": "269 to 272"}, {"smiles": "CNC1=Nc2ncccc2C(c2cnc[nH]2)=NC1c1cccs1", "note": "(stereo not shown)", "melting point": "280 to 290"}]}]}
